Structures are written as SMILES.

What all share (type): biochemical
The target of assay [1] is T1, VEGFR2 kinase (Homo sapiens, UniProt P35968).
T1 construct: purchased Invitrogen Inc PV3660
As to the kind of experiment: In vitro VEGFR2 kinase assay. The essentials: (§1)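 Human VEGFR2 (20 ng) or PDGFRβ (25 ng) was preincubated 10 min at about 22°C with compound, then reacted 2 h at 30°C with poly Glu:Tyr (4:1), ATP added at 60 μM. ADP formation was detected by ADP Quest coupled resorufin fluorescence (Ex 530/Em 580 nm). Efficacy is expressed as a percentage of Bay 43-9006 positive-control activity, with DMSO as negative control.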

Assay [2] concerns the target T2, human B-Raf protein kinase (Homo sapiens, UniProt P15056).
T2 construct: GST (N); purchased Upstate Inc. 14-530 (B-Raf); 14-420 (Mek1)
As to the kind of experiment: In vitro B-Raf/Mek1 composite kinase assay. In outline:
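GST-tagged human B-Raf (Δ1-415), 1 ng, in MOPS pH 7.2 buffer with 10 mM MgCl2, preincubated 15 min with compound at room temperature; after 2 h, ATP depletion read by luminescence. Inhibition expressed as percentage of positive-control activity, DMSO as negative control.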

For assay [3], the target named is T3, PDGFRβ kinase (Homo sapiens, UniProt P09619).
T3 construct: purchased Invitrogen Inc. P3082
Description: In vitro PDGFRβ kinase assay. The essentials:
as §1

T3 sequence (P09619 33-1106): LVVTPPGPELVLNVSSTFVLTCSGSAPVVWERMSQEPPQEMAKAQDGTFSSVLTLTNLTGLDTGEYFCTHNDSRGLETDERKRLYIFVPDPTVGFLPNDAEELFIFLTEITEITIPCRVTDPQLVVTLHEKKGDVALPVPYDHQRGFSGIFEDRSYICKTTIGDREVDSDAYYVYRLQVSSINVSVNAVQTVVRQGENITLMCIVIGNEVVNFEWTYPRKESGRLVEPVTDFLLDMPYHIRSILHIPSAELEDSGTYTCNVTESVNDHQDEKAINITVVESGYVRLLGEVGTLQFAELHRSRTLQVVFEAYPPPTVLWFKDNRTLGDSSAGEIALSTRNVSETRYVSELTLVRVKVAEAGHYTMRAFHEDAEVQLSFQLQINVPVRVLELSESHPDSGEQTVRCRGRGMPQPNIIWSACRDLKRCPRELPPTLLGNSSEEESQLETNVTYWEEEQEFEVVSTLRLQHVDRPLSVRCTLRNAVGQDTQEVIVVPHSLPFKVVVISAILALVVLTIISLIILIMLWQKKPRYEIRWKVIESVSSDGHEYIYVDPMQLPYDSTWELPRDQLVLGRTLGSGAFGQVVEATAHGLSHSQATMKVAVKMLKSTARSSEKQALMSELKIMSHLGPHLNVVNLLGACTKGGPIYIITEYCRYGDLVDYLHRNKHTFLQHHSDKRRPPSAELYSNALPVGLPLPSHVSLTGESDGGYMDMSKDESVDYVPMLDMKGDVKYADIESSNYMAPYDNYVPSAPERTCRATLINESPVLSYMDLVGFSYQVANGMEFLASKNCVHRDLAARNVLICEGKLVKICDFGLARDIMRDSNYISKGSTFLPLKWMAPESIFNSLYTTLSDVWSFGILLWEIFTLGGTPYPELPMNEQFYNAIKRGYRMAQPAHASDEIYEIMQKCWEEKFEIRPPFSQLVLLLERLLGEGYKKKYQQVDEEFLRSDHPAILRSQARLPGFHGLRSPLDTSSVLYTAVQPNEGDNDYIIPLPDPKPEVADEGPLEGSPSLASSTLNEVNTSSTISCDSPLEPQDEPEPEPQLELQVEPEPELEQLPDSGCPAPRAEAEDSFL
T1 sequence (P35968 20-1356): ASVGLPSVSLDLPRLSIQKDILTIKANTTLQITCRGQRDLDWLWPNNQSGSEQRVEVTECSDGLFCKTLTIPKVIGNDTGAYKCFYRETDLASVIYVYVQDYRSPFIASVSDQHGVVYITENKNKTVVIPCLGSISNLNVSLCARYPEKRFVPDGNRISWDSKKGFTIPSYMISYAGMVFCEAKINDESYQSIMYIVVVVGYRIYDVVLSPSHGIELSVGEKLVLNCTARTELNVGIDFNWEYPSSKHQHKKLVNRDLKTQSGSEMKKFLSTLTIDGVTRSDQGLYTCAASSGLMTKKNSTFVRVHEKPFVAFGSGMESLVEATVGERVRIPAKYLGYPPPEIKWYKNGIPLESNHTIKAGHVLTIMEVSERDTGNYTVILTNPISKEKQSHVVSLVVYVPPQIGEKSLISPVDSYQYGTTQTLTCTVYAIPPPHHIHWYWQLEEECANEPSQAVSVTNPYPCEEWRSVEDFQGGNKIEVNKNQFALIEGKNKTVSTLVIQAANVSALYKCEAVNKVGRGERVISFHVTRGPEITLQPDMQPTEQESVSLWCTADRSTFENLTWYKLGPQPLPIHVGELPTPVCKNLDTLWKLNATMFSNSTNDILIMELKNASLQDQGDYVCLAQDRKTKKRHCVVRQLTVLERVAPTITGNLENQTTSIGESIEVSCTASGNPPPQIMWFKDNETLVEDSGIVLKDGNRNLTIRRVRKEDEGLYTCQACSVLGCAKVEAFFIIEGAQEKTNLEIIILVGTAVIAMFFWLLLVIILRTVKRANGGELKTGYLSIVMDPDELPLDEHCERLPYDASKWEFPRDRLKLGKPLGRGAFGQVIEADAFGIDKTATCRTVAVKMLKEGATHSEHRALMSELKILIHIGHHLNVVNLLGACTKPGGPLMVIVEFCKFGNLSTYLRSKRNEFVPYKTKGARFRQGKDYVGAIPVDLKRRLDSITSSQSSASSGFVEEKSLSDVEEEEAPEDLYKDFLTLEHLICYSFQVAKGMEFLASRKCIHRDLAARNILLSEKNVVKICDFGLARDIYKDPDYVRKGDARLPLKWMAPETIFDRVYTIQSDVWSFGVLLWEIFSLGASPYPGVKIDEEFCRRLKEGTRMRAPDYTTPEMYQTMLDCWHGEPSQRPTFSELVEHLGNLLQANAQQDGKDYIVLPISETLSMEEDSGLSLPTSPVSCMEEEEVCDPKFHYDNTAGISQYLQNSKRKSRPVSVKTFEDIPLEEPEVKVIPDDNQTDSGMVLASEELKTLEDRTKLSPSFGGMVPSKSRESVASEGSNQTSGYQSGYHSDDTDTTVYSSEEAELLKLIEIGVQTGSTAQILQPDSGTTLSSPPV
T2 sequence (P15056 416-766): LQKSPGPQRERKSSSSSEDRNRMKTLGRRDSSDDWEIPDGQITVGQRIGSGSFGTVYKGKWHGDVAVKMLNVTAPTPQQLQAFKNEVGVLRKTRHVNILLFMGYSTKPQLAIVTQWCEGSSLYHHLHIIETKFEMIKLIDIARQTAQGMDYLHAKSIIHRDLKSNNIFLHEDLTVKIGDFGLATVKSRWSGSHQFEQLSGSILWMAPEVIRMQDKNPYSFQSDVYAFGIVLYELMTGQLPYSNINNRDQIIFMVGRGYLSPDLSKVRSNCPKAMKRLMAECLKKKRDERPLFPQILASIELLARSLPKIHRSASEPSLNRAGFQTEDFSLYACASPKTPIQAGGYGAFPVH

Take `Cn1cc(-c2cc(Oc3cccc(NC(=O)c4ccc5[nH]ccc5c4)c3)ccn2)cn1` [Example 70, N-(3-(2-(1-Methyl-1H-pyrazol-4-yl)pyridin-4-yloxy)phenyl)-1H-indole-5-carboxamide]: the IC50 was at most 10 µM in assay [1], at most 10 µM in assay [2] and over 10 µM in assay [3].
Take `Cn1cc(-c2cc(Oc3cccc(NC(=O)c4cccc5cc[nH]c45)c3)ccn2)cn1` [Example 71, N-(3-(2-(1-Methyl-1H-pyrazol-4-yl)pyridin-4-yloxy)phenyl)-1H-indole-7-carboxamide]: the half-inhibitory concentration (IC50) in assay [1] was over 10 µM; in assay [2], at most 10 µM; in assay [3] it was over 10 µM.
As to `CCOc1cccc(C(=O)Nc2cccc(Oc3ccnc(-c4cnn(C)c4)c3)c2)c1` [Example 72, 3-Ethoxy-N-(3-(2-(1-methyl-1H-pyrazol-4-yl)pyridin-4-yloxy)phenyl)benzamide], the IC50 in assay [1], in assay [2] and in assay [3] was at most 10 µM throughout.
As to `CCCOc1cccc(C(=O)Nc2cccc(Oc3ccnc(-c4cnn(C)c4)c3)c2)c1` [Example 73, N-(3-(2-(1-Methyl-1H-pyrazol-4-yl)pyridin-4-yloxy)phenyl)-3-propoxybenzamide], the half-maximal inhibitory concentration (IC50) in assay [1], in assay [2] and in assay [3] was over 10 µM in each case.
As to `CCCOc1ccc(C(=O)Nc2cccc(Oc3ccnc(-c4cnn(C)c4)c3)c2)cc1` [Example 74, N-(3-(2-(1-Methyl-1H-pyrazol-4-yl)pyridin-4-yloxy)phenyl)-4-propoxybenzamide], the 50% inhibitory concentration (IC50) in assay [1] was over 10 µM; in assay [2], at most 10 µM; in assay [3], over 10 µM.
In the case of `CC(C)Oc1ccc(C(=O)Nc2cccc(Oc3ccnc(-c4cnn(C)c4)c3)c2)cc1` [Example 75, 4-Isopropoxy-N-(3-(2-(1-methyl-1H-pyrazol-4-yl)pyridin-4-yloxy)phenyl)benzamide], the results for the IC50 in assay [1], in assay [2] and in assay [3] were over 10 µM, at most 10 µM and over 10 µM, respectively.
In the case of `CCCCOc1ccc(C(=O)Nc2cccc(Oc3ccnc(-c4cnn(C)c4)c3)c2)cc1` [Example 76, 4-Butoxy-N-(3-(2-(1-methyl-1H-pyrazol-4-yl)pyridin-4-yloxy)phenyl)benzamide], the concentration for half-maximal inhibition (IC50) in assay [1] is at most 10 µM; in assay [2] it was at most 10 µM; in assay [3], over 10 µM.

Broadly, the IC50 is the concentration that inhibits the measured activity by half.

The values are drawn from patent publication US20070155746A1, “NOVEL SUBSTITUTED PYRIDINYLOXY AND PYRIMIDINYLOXY AMIDES USEFUL AS INHIBITORS OF PROTEIN KINASES” (KALYPSYS, INC., priority 2005, published 2007).
